Like-named read-outs stand apart in the source and are kept apart here.
Columns and labels:
[1] = system: hiPSC-ECs; experiment: oxidative stress and inflammation readouts in hiPSC-ECs; assay type: cell-based, human; settings: for expression of proinflammatory cytokines and chemokines / inflammation-related genes / TLR4 expression / expression of ROS-related genes NOX1 and iNOS / mRNA expression of antioxidant-related genes (SOD1, SOD2, CAT, GPX1): Δ9-THC alone; for expression of proinflammatory cytokines and chemokines / inflammation-related genes: genistein or AM6545 = reversal of the Δ9-THC-induced effect; for TLR4 expression / expression of ROS-related genes NOX1 and iNOS / mRNA expression of antioxidant-related genes (SOD1, SOD2, CAT, GPX1): genistein = with Δ9-THC
[2] = biological target: T1, CB1 (Homo sapiens, UniProt P21554); experiment: in vitro GTPase assay; assay type: biochemical
T1 sequence (P21554 whole entry): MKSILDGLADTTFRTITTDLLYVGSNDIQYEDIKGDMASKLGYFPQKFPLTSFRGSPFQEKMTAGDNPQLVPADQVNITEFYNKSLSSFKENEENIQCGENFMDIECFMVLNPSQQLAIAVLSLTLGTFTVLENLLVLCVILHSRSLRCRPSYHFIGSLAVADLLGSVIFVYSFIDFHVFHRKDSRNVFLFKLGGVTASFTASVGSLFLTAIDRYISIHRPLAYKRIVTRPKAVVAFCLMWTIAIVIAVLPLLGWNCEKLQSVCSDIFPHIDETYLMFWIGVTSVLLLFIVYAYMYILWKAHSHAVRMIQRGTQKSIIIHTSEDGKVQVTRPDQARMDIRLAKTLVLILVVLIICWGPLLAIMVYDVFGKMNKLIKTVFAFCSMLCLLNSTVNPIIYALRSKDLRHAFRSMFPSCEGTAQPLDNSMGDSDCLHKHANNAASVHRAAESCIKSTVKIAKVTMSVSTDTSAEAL

[3] = biological target: T1, CB1; experiment: CB1 radioligand binding assay
[4] = system: hiPSC-ECs; experiment: monocyte adhesion to hiPSC-ECs; assay type: cell-based, human; settings: Δ9-THC alone; genistein = with Δ9-THC
[5] = system: C57BL/6J mice; experiment: 30-day C57BL/6J mouse model of Δ9-THC-induced endothelial dysfunction, oxidative stress and inflammation; settings: for endothelial function (wire myograph, thoracic aorta): 30 days, genistein = Δ9-THC plus genistein; for circulating levels of glutathione / plasma interleukins IL-6, IL-3 and IL-10: Δ9-THC alone; for circulating levels of glutathione: genistein = co-treatment; for plasma interleukins IL-6, IL-3 and IL-10: genistein = cotreatment
Excerpt: Seven-week-old male C57BL/6J mice were obtained from Jackson Laboratory (Bar Harbor, ME, USA). […] Organs were collected, weighed, and fixed with 4% paraformaldehyde (PFA). The thoracic aortas (TAs) were surgically dissected out and cleaned from the surrounding connective tissue for all groups. The TAs were transferred to ice-cold Krebs'-Henseleit solution and cut into segments of 2 mm. The artery segments were mounted in wire-myograph chambers for isometric tension recordings (DanishMyo Technology [DMT]).The chambers contained Krebs'-Henseleit solution. All chambers were aerated with 95% 02/5% CO2, and the temperature was kept constant at 37° C. to mimic physiological conditions. After a manual stabilization and normalization procedure, the PowerLab4/25-Chart7 acquisition systems (AD Instruments Ltd) was used to record force and convert it into tension. The TA segments were pre-constricted using either […] 5HT serotonin (5HT) or U46619. A cumulative application of acetylcholine ([…]) was performed, and the induced vascular dilatations were measured. Subsequently, concentration-response relationship curves were established for each group of 3 mice. Time-matched dimethylsulfoxide (DMSO) application was performed in a separate chamber as the control for all experiments.

[6] = system: LDL receptor knock-out mice (B6.129S7-Ldlr^tm1Her/J); experiment: atherosclerosis in LDL receptor knock-out mice on high-fat diet; assay type: in vivo, mouse; settings: for serum lipid profiles or blood pressure: 12 weeks high-fat diet, genistein = cotreatment with Δ9-THC; for CD68-positive area in the aortic root (macrophage recruitment) / plaque size (Oil Red O; aortic root cross-sections and en face thoracic aorta): 12 weeks, genistein = co-treatment with Δ9-THC
Protocol: After 12 weeks, the mice were euthanized, and the atherosclerotic lesion area was examined by cross-sections of the aortic root and an en face analysis of the thoracic aorta. […] Macrophage recruitment in the aortic root was analyzed using aortic plaque stained with an anti-CD68 antibody.

[7] = system: ApoE^−/− mice; experiment: ApoE−/− partial carotid artery ligation (PCAL) atherosclerosis model; assay type: in vivo, mouse; settings: for plaque area (Oil Red O), ligated carotid artery: 10 days high-fat diet, genistein = cotreatment with Δ9-THC; for CD68-positive area / F4/80-positive area, ligated carotid artery: genistein = co-treatment with Δ9-THC
[8] = system: C57BL/6J mice; experiment: neurobehavioral testing (Billy Martin tetrad); assay type: in vivo, mouse
[9] = system: Human subjects; experiment: human study in subjects ingesting medicinal cannabinoids; assay type: in vivo; settings: 1 or 5 mg/Kg/day versus placebo
[10] = biological target: G protein-coupled estrogen receptor (Homo sapiens, UniProt Q99527); settings: agonist; cited from earlier work
Sequence of G protein-coupled estrogen receptor (Q99527 whole entry): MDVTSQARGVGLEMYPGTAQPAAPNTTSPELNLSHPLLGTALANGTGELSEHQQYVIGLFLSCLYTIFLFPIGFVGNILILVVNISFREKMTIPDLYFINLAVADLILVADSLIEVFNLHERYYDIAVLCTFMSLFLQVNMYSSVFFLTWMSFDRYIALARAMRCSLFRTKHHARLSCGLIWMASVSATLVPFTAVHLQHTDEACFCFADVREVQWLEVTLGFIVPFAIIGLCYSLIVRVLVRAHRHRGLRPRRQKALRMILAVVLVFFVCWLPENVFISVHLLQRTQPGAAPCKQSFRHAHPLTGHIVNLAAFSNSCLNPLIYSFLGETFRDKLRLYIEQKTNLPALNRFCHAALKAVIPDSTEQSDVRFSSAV

[11] = biological target: T1, CB1; settings: reported as an agonist; cited from earlier work
[12] = biological target: human CB2 (Homo sapiens, UniProt P34972); settings: reported as an agonist; cited from earlier work
Sequence of human CB2 (P34972 whole entry): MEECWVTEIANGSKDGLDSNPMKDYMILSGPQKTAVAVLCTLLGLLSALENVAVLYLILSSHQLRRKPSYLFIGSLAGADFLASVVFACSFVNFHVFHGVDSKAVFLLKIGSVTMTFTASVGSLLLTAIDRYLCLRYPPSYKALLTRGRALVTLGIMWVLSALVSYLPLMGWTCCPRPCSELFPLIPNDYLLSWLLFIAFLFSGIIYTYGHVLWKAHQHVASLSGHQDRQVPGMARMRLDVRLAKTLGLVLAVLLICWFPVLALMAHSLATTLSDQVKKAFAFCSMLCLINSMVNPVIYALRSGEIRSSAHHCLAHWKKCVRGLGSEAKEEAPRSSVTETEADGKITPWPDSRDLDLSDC

[13] = in vivo; cited from earlier work
[14] = not told; cited from earlier work
[15] = Yang et al. 2012; cited from earlier work
[16] = system: hiPSC-ECs; experiment: cytotoxicity in hiPSC-ECs
[17] = system: human cardiac fibroblasts-ventricular (NHCF-V); experiment: cytotoxicity in cardiac fibroblasts
[18] = system: human endothelial cells (HUVECs and HCAECs); experiment: cytotoxicity in human endothelial cells
[19] = system: human endothelial cells; experiment: inflammation and antioxidant gene expression in human endothelial cells
[20] = Δ9-THC 20 mg/kg i.p., 60 min post-dosing

| Structure (SMILES) | expression of proinflammatory cytokines and chemokines / inflammation-related genes [1] | TLR4 expression [1] | expression of ROS-related genes NOX1 and iNOS [1] | mRNA expression of antioxidant-related genes (SOD1, SOD2, CAT, GPX1) [1] | monocyte adhesion to hiPSC-ECs [4] | endothelial function (wire myograph, thoracic aorta) [5] | mRNA expressions of inflammation induced by Δ9-THC in mouse thoracic artery tissues ([5]; with Δ9-THC) | circulating levels of glutathione [5] | plasma interleukins IL-6, IL-3 and IL-10 [5] | serum lipid profiles or blood pressure [6] | CD68-positive area in the aortic root (macrophage recruitment) [6] | plaque size (Oil Red O; aortic root cross-sections and en face thoracic aorta) [6] | plaque area (Oil Red O), ligated carotid artery [7] | CD68-positive area [7] | F4/80-positive area, ligated carotid artery [7] | other results |
| --- | --- | --- | --- | --- | --- | --- | --- | --- | --- | --- | --- | --- | --- | --- | --- | --- |
| Cc1c(C(=O)NN2CCS(=O)(=O)CC2)nn(-c2ccc(Cl)cc2Cl)c1-c1ccc(C#CCCC#N)cc1 [AM6545] | reversed | – | – | – | – | – | – | – | – | – | – | – | – | – | – | – |
| O=c1c(-c2ccc(O)cc2)coc2cc(O)cc(O)c12 [genistein, 5,7-dihydroxy-3-(4-hydroxyphenyl)-4H-1-benzopyran-4-one] | reversed | disrupted | salutatory effect | ameliorated | reversed | mitigated | ameliorated | ameliorated | significantly reduced | Neither Δ^9-THC nor cotreatment with Δ^9-THC and genistein affected | rescued | ameliorated plaque size | ameliorated plaque size | reduced | decreased | mode of action against CB1 [2]: neutral antagonist; IC50 [3]: 150 nM; NF-κB phosphorylation ([1]; genistein with Δ9-THC): attenuated; NF-κB phosphorylation and SOD expression in mouse serum ([5]; with Δ9-THC): attenuated; oxidative stress-related gene expression ([5]; with Δ9-THC): rescued; Δ9-THC neurobehavioral effects ([8]; genistein 50 mg/kg p.o. in co-treatment with Δ9-THC 20 mg/kg i.p.): could not attenuate; tetrad effects ([8]; genistein alone, 50 mg/kg p.o.): did not affect tetrad effects; incidence of adverse cardiovascular effects of cannabinoid ingestion [9]: dose-related lower incidence; affinity [10]: 133 nM; IC50 [11]: 150 nM; IC50 [12]: > 50000 nM; Ki [12]: > 50000 nM; bioavailability [13]: low bioavailability; cell wall permeability [14]: high cell wall permeability; blood-brain barrier (BBB) penetration [15]: poor blood-brain barrier (BBB) penetration |
| CCCCCc1cc(O)c2c(c1)OC(C)(C)[C@@H]1CCC(C)=C[C@@H]21 [Δ^9-THC, (6aR,10aR)-6,6,9-trimethyl-3-pentyl-6a,7,8,10a-tetrahydro-6H-benzo[c]chromen-1-ol] | increased | induced | upregulated | decreased | increased adhesion | induced endothelial dysfunction | – | decreased | elevated | Neither Δ^9-THC nor cotreatment with Δ^9-THC and genistein affected | significantly increased | significantly increased plaque size | increased | significantly increased | significantly increased | I kappa B (IκB) [1]: inhibited; TNFα concentration in the cell culture medium [1]: increased; hydrogen peroxide (H2O2) levels ([1]; immunofluorescence staining): increased; duration of Δ9-THC-induced expression of proinflammatory cytokines and chemokines after the initial exposure ([1]; Δ9-THC 48 hours, then wash-out, no genistein): 8 to 10 days; plasma concentration of Δ9-THC ([5]; intraperitoneal injection, LC-MS): ~100 ng/mL; analgesia (hot plate 55° C.) ([8]; Δ9-THC 20 mg/kg i.p.): analgesia; hypothermia (rectal body temperature) [8, 20]: hypothermia; mobility (open field activity chamber) [8, 20]: decreased mobility; sedation (bar test) [8, 20]: sedation; cytotoxicity [16]: induced cytotoxicity; cytotoxicity [17]: without any adverse effect; cytotoxicity [18]: induced cytotoxicity; antioxidant-related gene expression [19]: reduced; expression of inflammation-related genes [19]: induced |
| Cc1c(C(=O)NN2CCCCC2)nn(-c2ccc(Cl)cc2Cl)c1-c1ccc(Cl)cc1 [rimonabant] | – | – | – | – | – | – | ameliorated | – | – | – | – | – | – | – | – | – |

Reference: patent US20240307342A1, “Treatment of the adverse cardiovascular effects of cannabinoids” (GreenStone Biosciences, Inc., priority 2022, published 2024)
